From PubChem BioAssay (NCI)
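How tested: cells in 96-well plates exposed to compound for 48 hours at five concentrations. TGI denotes the concentration required for complete inhibition of growth.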

Columns and labels:
Assay in all cases: NCI anticancer screen, dose series, 48 h
[1] = system: U251 CNS
[2] = system: SF-539 CNS
[3] = system: DLD-1 colon
[4] = system: MOLT-4 leukemia
[5] = system: UACC-62 melanoma
[6] = system: KM12 colon
[7] = system: OVCAR-3 ovarian
[8] = system: IGROV1 ovarian
[9] = system: RXF 393 renal
[10] = system: A549 NSCLC
[11] = system: M19-MEL melanoma
[12] = system: OVCAR-8 ovarian
[13] = system: HCC-2998 colon
[14] = system: DMS 273 small cell lung
[15] = system: SW-620 colon
[16] = system: HOP-18 NSCLC
[17] = system: NCI-H226 lung
[18] = system: SF-268 CNS
[19] = system: DMS 114 small cell lung
[20] = system: UO-31 renal
[21] = system: SNB-78 CNS
[22] = system: SNB-75 CNS
[23] = system: OVCAR-4 ovarian
[24] = system: SF-295 CNS
[25] = system: OVCAR-5 ovarian
[26] = system: NCI-H23 lung
[27] = system: CCRF-CEM leukemia
[28] = system: SNB-19 CNS
[29] = system: K-562 leukemia
[30] = system: M14 melanoma
[31] = system: SK-MEL-28 melanoma
[32] = system: HT29 colon
[33] = system: MALME-3M melanoma
[34] = system: LOX IMVI melanoma
[35] = system: TK-10 renal
[36] = system: RXF-631 renal
[37] = system: ACHN renal
[38] = system: XF 498 CNS
[39] = system: NCI-H460 lung
[40] = system: RPMI-8226 leukemia
[41] = system: SN12C renal
[42] = system: HCT-15 colon
[43] = system: 786-0 renal
[44] = system: EKVX NSCLC
[45] = system: A498 renal
[46] = system: SK-OV-3 ovarian
[47] = system: SK-MEL-5 melanoma
[48] = system: LXFL 529 NSCLC
[49] = system: COLO 205 colon
[50] = system: SR leukemia

O=C1NC(=O)C2C1c1[nH]c3ccccc3c1C1CCCC12 (stereo not given)
TGI [1]: 22.6 µM
TGI [2]: 11.8 µM
TGI [3]: > 100 µM
TGI [4]: > 100 µM
TGI [5]: > 100 µM
TGI [6]: > 100 µM
TGI [7]: 5.64 µM
TGI [8]: > 100 µM
TGI [9]: 24.4 µM
TGI [10]: > 100 µM
TGI [11]: > 100 µM
TGI [12]: 64.5 µM
TGI [13]: > 100 µM
TGI [14]: 12.6 µM
TGI [15]: > 100 µM
TGI [16]: 83.8 µM
TGI [17]: 51.7 µM
TGI [18]: 39.1 µM
TGI [19]: 29.5 µM
TGI [20]: > 100 µM
TGI [21]: > 100 µM
TGI [22]: 6.29 µM
TGI [23]: > 100 µM
TGI [24]: 6.56 µM
TGI [25]: > 100 µM
TGI [26]: > 100 µM
TGI [27]: > 100 µM
TGI [28]: > 100 µM
TGI [29]: > 100 µM
TGI [30]: > 100 µM
TGI [31]: > 100 µM
TGI [32]: > 100 µM
TGI [33]: > 100 µM
TGI [34]: > 100 µM
TGI [35]: > 100 µM
TGI [36]: > 100 µM
TGI [37]: > 100 µM
TGI [38]: 6.85 µM
TGI [39]: > 100 µM
TGI [40]: > 100 µM
TGI [41]: > 100 µM
TGI [42]: > 100 µM
TGI [43]: > 100 µM
TGI [44]: > 100 µM
TGI [45]: 26.6 µM
TGI [46]: 45.4 µM
TGI [47]: 8.66 µM
TGI [48]: > 100 µM
TGI [49]: 32.1 µM
TGI [50]: > 100 µM
